Legend:
[1] = tested on: LNCaP prostate tumor cells; assay: In vitro cytotoxicity of peptidyl derivatives of doxorubicin (Alamar Blue assay); type: cell-based, human; conditions: FIG. 4, cells incubated 3 days at 37° C.
Method: The cytotoxicities of the non-cleaveable oligopeptide-doxorubicin conjugates, prepared as described in Example 4, against a line of cells which is known to be killed by unmodified doxorubicin were assessed with an Alamar Blue assay. Specifically, cell cultures of LNCaP prostate tumor cells, which are a human metastatic prostate adenocarcinoma isolated from a needle biopsy of a lymph node (LNCaP.FGC: American Type Culture Collection, ATCC CRL 1740), or DuPRO cells in 96 well plates were diluted with medium containing various concentrations of a given conjugate (final plate well volume of 200 μl). The cells were incubated for 3 days at 37° C. and then 20 μl of Alamar Blue was added to the assay well. The cells were further incubated and the assay plates were read on a EL-310 ELISA reader at the dual wavelengths of 570 and 600 nm at 4 and 7 hours after addition of Alamar Blue. Relative percentage viability at the various concentration of conjugate tested was then calculated versus control (no conjugate) cultures. Cytotoxicities of unmodified doxorubicin and unmodified oligopeptide were also assessed.

[2] = tested on: free PSA

| cleaved bond [2] | Compound | EC50 [1] |
| --- | --- | --- |
|  | COc1cccc2c1C(=O)c1c(O)c3c(c(O)c1C2=O)C[C@@](O)(C(=O)CO)C[C@@H]3O[C@H]1C[C@H](N)[C@H](O)[C@H](C)O1 [doxorubicin] | 0.3 µM |
| Gln-Ser | Ac-AlaAsnLysIleSerTyrGln.vertline.SerSerLysThrGlu-amide |  |
| Gln-Ser | Ac-LysIleSerTyrGln.vertline.SerSer-amide |  |
| Gln-Ser | Ac-AlaAsnLysIleSerTyrGln.vertline.SerSerGlnThrGlu-amide |  |
| Gln-Ser | Ac-AlaAsnLysIleSerTyrGln.vertline.SerThrGlu-amide |  |
| Gln-Ser | Ac-SerTyrGln.vertline.SerSerSerThrGlu-amide |  |
| Gln-Ser | Ac-AlaAsnLysIleSerTyrGln.vertline.SerSerSerThrGlu-amide |  |
| Gln-Ser | AlaAsnLysIleSerTyrGln.vertline.SerSerSerThrGlu-amide |  |
| Gln-Ser | Ac-AlaAsnLysIleSerTyrGln.vertline.SerSerSerThrLeu |  |
| Gln-Ser | Ac-hArg(Cha)Gln.vertline.SerSerSer(ethylester-Leu) |  |
| Gln-Ser | Ac-AlaSerTyrGln.vertline.SerSerSerThrGlu-amide |  |
| Gln-Ser | Ac-AlaSerTyrGln.vertline.SerSerLeu-amide |  |
| Tyr-Ser | Ac-AlaAsnLysIleSerTyrTyr.vertline.SerSerSerThrGlu-amide |  |
| Gln-Ser | Ac-AlaAsnLysIleSerTyrGln.vertline.SerSerThrGlu-amide |  |
| Gln-Ser | Ac-AlaAspLysAlaLysTyrGln.vertline.SerSer(Cha)-NHNH2 |  |
| Gln-Ser | Ac-AsnLysIleSerTyrGln.vertline.SerSer-amide |  |
| Gln-Ser | Ac-AlaAsnGluIleSerTyrGln.vertline.SerAlaSerThrGlu-amide |  |
| Gln-Ser | Ac-hArgTyrGln.vertline.SerSerSer(MeLeu) |  |
| Gln-Ser | Ac-AlaAsnLysAlaSerTyrGln.vertline.SerAlaSerThrGlu-amide |  |
| Gln-Ser | Ac-AlaAsnLysIleSerTyrGln.vertline.SerAlaLysThrGlu-amide |  |
| Gln-Ser | Ac-AlaAsnLysAlaSerTyrGln.vertline.SerAlaSerCys-amide |  |
| Gln-Ser | Ac-SerTyrGln.vertline.SerSerThrGlu-amide |  |
| Gln-Ser | Ac-AlaSerTyrGln.vertline.SerSerThrGlu-amide |  |
| Gln-Ser | Ac-AlaAsnLysSerTyrGln.vertline.SerSerThrGlu-amide |  |
| Tyr-Ser | Ac-AlaAsnLysIleSerTyrTyr.vertline.SerAlaSerThrGlu-amide |  |
| Gln-Ser | Ac-AlaAsnLysIleSerTyrGln.vertline.SerAlaSerThrGlu-amide |  |
| Gln-Ser | Ac-AlaAsnSerTyrGln.vertline.SerSerSerThrGlu-amide |  |
| Gln-Ser | Ac-AlaAsnLysIleSerTyrGln.vertline.SerSerSerThrLeu-amide |  |
| Gln-Ser | Ac-hArgTyrGln.vertline.SerSerSer(Ethylester-Leu) |  |

From US6130204A (Merck & Co., Inc., priority 1998, dated 2000)
